Laboratory results as given in ChEMBL document CHEMBL1142186, “Multistep resistance selection and postantibiotic-effect studies of the antipneumococcal activity of LBM415 compared to other agents” (2007).
Values after ≈ are worked out from the molar mass of the structure shown.

Key:
Format in all cases: functional
Streptococcus pneumoniae [1] = assay: Antibacterial activity against Streptococcus pneumoniae assessed as period of suppression of bacterial growth
Streptococcus pneumoniae [2] = assay: Antibacterial activity against gatifloxacin resistance selected Streptococcus pneumoniae 37 with GyrA S81Y, GyrB E474K and ParC S79Y mutation after 10 antibiotic-free subcultures by macrodilution method
Streptococcus pneumoniae [3] = assay: Antibacterial activity against gatifloxacin resistance selected Streptococcus pneumoniae 1076 with ParC S79Y mutation after 10 antibiotic-free subcultures by macrodilution method
Streptococcus pneumoniae [4] = assay: Antibacterial activity against azithromycin resistance selected Streptococcus pneumoniae 3243 with L22 insertion 93SFRPRA94 mutation after 10 antibiotic-free subcultures by macrodilution method
Streptococcus pneumoniae [5] = assay: Antibacterial activity against gatifloxacin resistance selected Streptococcus pneumoniae 3009 after 10 antibiotic-free subcultures by macrodilution method
Streptococcus pneumoniae [6] = assay: Antibacterial activity against azithromycin resistance selected Streptococcus pneumoniae 1077 with 23S rRNA A2058G mutation after 10 antibiotic-free subcultures by macrodilution method
Streptococcus pneumoniae [7] = assay: Antibacterial activity against moxifloxacin resistance selected Streptococcus pneumoniae 1076 with ParC S79Y mutation after 10 antibiotic-free subcultures by macrodilution method
Streptococcus pneumoniae [8] = assay: Antibacterial activity against azithromycin resistance selected Streptococcus pneumoniae 2527 after 10 antibiotic-free subcultures by macrodilution method
Streptococcus pneumoniae [9] = assay: Antibacterial activity against clarithromycin resistance selected Streptococcus pneumoniae 3676 after 10 antibiotic-free subcultures by macrodilution method
Streptococcus pneumoniae [10] = assay: Antibacterial activity against moxifloxacin resistance selected Streptococcus pneumoniae 3665 with GyrA S81Y mutation after 10 antibiotic-free subcultures by macrodilution method
Streptococcus pneumoniae [11] = assay: Antibacterial activity against moxifloxacin resistance selected Streptococcus pneumoniae 24 with GyrA S81Y, GyrB P413S and ParC S79F mutation after 10 antibiotic-free subcultures by macrodilution method
Streptococcus pneumoniae [12] = assay: Antibacterial activity against moxifloxacin resistance selected Streptococcus pneumoniae 19 with GyrA S81F mutation after 10 antibiotic-free subcultures by macrodilution method
Streptococcus pneumoniae [13] = assay: Antibacterial activity against clarithromycin resistance selected Streptococcus pneumoniae 3009 after 10 antibiotic-free subcultures by macrodilution method
Streptococcus pneumoniae [14] = assay: Antibacterial activity against levofloxacin resistance selected Streptococcus pneumoniae 3009 with GyrA S81Y and ParC S79Y mutation after 10 antibiotic-free subcultures by macrodilution method
Streptococcus pneumoniae [15] = assay: Antibacterial activity against moxifloxacin resistance selected Streptococcus pneumoniae 3243 after 10 antibiotic-free subcultures by macrodilution method
Streptococcus pneumoniae [16] = assay: Antibacterial activity against clarithromycin resistance selected Streptococcus pneumoniae 3243 with 23S rRNA A2059T mutation after 10 antibiotic-free subcultures by macrodilution method
Streptococcus pneumoniae [17] = assay: Antibacterial activity against levofloxacin resistance selected Streptococcus pneumoniae 19 with GyrA S81Y and ParC D83Y mutation after 10 antibiotic-free subcultures by macrodilution method
Streptococcus pneumoniae [18] = assay: Antibacterial activity against moxifloxacin resistance selected Streptococcus pneumoniae 3009 with GyrA S81F and ParC D83N mutation after 10 antibiotic-free subcultures by macrodilution method
Streptococcus pneumoniae [19] = assay: Antibacterial activity against clarithromycin resistance selected Streptococcus pneumoniae 3665 after 10 antibiotic-free subcultures by macrodilution method
Streptococcus pneumoniae [20] = assay: Antibacterial activity against moxifloxacin resistance selected Streptococcus pneumoniae 3676 with GyrA E85G, GyrB S478I and ParC S79Y mutation after 10 antibiotic-free subcultures by macrodilution method
Streptococcus pneumoniae [21] = assay: Antibacterial activity against Streptococcus pneumoniae 1076 by macrodilution method
Streptococcus pneumoniae [22] = assay: Antibacterial activity against Streptococcus pneumoniae 3676 by macrodilution method
Streptococcus pneumoniae [23] = assay: Antibacterial activity against […] resistance selected Streptococcus pneumoniae 3665 with after 10 antibiotic-free subcultures by macrodilution method
Streptococcus pneumoniae [24] = assay: Antibacterial activity against […] resistance selected Streptococcus pneumoniae 37 with PDF G69R, P76R mutation after 50 passages by macrodilution method
Streptococcus pneumoniae [25] = assay: Antibacterial activity against […] resistance selected Streptococcus pneumoniae 24 with PDF G139F mutation after 10 antibiotic-free subcultures by macrodilution method
Streptococcus pneumoniae [26] = assay: Antibacterial activity against Streptococcus pneumoniae 3009 by macrodilution method
Streptococcus pneumoniae [27] = assay: Antibacterial activity against […] resistance selected Streptococcus pneumoniae 3665 with after 27 passages by macrodilution method
Streptococcus pneumoniae [28] = assay: Antibacterial activity against […] resistance selected Streptococcus pneumoniae 1077 with PDF D176N mutation after 10 antibiotic-free subcultures by macrodilution method
Streptococcus pneumoniae [29] = assay: Antibacterial activity against […] resistance selected Streptococcus pneumoniae 3413 after 10 antibiotic-free subcultures by macrodilution method
Streptococcus pneumoniae [30] = assay: Antibacterial activity against Streptococcus pneumoniae 3413 by macrodilution method
Streptococcus pneumoniae [31] = assay: Antibacterial activity against Streptococcus pneumoniae 24 by macrodilution method
Streptococcus pneumoniae [32] = assay: Antibacterial activity against Streptococcus pneumoniae 3665 by macrodilution method
Streptococcus pneumoniae [33] = assay: Antibacterial activity against […] resistance selected Streptococcus pneumoniae 19 with after 14 passages by macrodilution method
Streptococcus pneumoniae [34] = assay: Antibacterial activity against […] resistance selected Streptococcus pneumoniae 2527 after 27 passages by macrodilution method
Streptococcus pneumoniae [35] = assay: Antibacterial activity against Streptococcus pneumoniae 2527 by macrodilution method
Streptococcus pneumoniae [36] = assay: Antibacterial activity against […] resistance selected Streptococcus pneumoniae 3676 with PDF R135C mutation after 10 antibiotic-free subcultures by macrodilution method
Streptococcus pneumoniae [37] = assay: Antibacterial activity against […] resistance selected Streptococcus pneumoniae 3413 after 14 passages by macrodilution method
Streptococcus pneumoniae [38] = assay: Antibacterial activity against […] resistance selected Streptococcus pneumoniae 2527 after 10 antibiotic-free subcultures by macrodilution method
Streptococcus pneumoniae [39] = assay: Antibacterial activity against […] resistance selected Streptococcus pneumoniae 1076 with PDF D176N mutation after 10 antibiotic-free subcultures by macrodilution method
Streptococcus pneumoniae [40] = assay: Antibacterial activity against […] resistance selected Streptococcus pneumoniae 3243 with PDF G69C, Q172H mutation after 20 passages by macrodilution method
Streptococcus pneumoniae [41] = assay: Antibacterial activity against […] resistance selected Streptococcus pneumoniae 3009 with PDF G69V mutation after 14 passages by macrodilution method
Streptococcus pneumoniae [42] = assay: Antibacterial activity against Streptococcus pneumoniae 19 by macrodilution method
Streptococcus pneumoniae [43] = assay: Antibacterial activity against […] resistance selected Streptococcus pneumoniae 19 with after 10 antibiotic-free subcultures by macrodilution method
Streptococcus pneumoniae [44] = assay: Antibacterial activity against […] resistance selected Streptococcus pneumoniae 1076 with PDF D176N mutation after 39 passages by macrodilution method
Streptococcus pneumoniae [45] = assay: Antibacterial activity against […] resistance selected Streptococcus pneumoniae 3676 with PDF R135C mutation after 20 passages by macrodilution method
Streptococcus pneumoniae [46] = assay: Antibacterial activity against Streptococcus pneumoniae 3243 by macrodilution method
Streptococcus pneumoniae [47] = assay: Antibacterial activity against […] resistance selected Streptococcus pneumoniae 3009 with PDF G69V mutation after 10 antibiotic-free subcultures by macrodilution method
Streptococcus pneumoniae [48] = assay: Antibacterial activity against […] resistance selected Streptococcus pneumoniae 24 with PDF G139F mutation after 27 passages by macrodilution method
Streptococcus pneumoniae [49] = assay: Antibacterial activity against Streptococcus pneumoniae 37 by macrodilution method
Streptococcus pneumoniae [50] = assay: Antibacterial activity against […] resistance selected Streptococcus pneumoniae 3243 with PDF G69C, Q172H mutation after 10 antibiotic-free subcultures by macrodilution method
Streptococcus pneumoniae [51] = assay: Antibacterial activity against […] resistance selected Streptococcus pneumoniae 1077 with PDF D176N mutation after 24 passages by macrodilution method
Streptococcus pneumoniae [52] = assay: Antibacterial activity against Streptococcus pneumoniae 1077 by macrodilution method
Streptococcus pneumoniae [53] = assay: Antibacterial activity against […] resistance selected Streptococcus pneumoniae 37 with PDF G69R, P76R mutation after 10 antibiotic-free subcultures by macrodilution method

## C[C@H]1COc2c(N3CCN(C)CC3)c(F)cc3c(=O)c(C(=O)O)cn1c23.C[C@H]1COc2c(N3CCN(C)CC3)c(F)cc3c(=O)c(C(=O)O)cn1c23.O [LEVOFLOXACIN]
Streptococcus pneumoniae [1]
  Post Antibiotic Effe: 1.3 h
Streptococcus pneumoniae [2]
  MIC: 64 µg/mL

## C[C@@H](O)[C@H]1C(=O)N2C(C(=O)O)=C(SCCNC=N)C[C@H]12 [IMIPENEM ANHYDROUS]
Streptococcus pneumoniae [3]
  MIC: 0.008 µg/mL (≈ 0.0267 µM)
Streptococcus pneumoniae [1]
  Post Antibiotic Effe: 1.7 h
Streptococcus pneumoniae [4]
  MIC: 0.03 µg/mL (≈ 0.1 µM)
Streptococcus pneumoniae [5]
  MIC: 0.008 µg/mL (≈ 0.0267 µM)
Streptococcus pneumoniae [6]
  MIC: 0.008 µg/mL (≈ 0.0267 µM)
Streptococcus pneumoniae [7]
  MIC: 0.008 µg/mL (≈ 0.0267 µM)
Streptococcus pneumoniae [8]
  MIC: 0.5 µg/mL (≈ 1.67 µM)
Streptococcus pneumoniae [9]
  MIC: 0.016 µg/mL (≈ 0.0534 µM)
Streptococcus pneumoniae [10]
  MIC: 0.03 µg/mL (≈ 0.1 µM)
Streptococcus pneumoniae [11]
  MIC: 0.5 µg/mL (≈ 1.67 µM)
Streptococcus pneumoniae [12]
  MIC: 0.5 µg/mL (≈ 1.67 µM)
Streptococcus pneumoniae [2]
  MIC: 0.5 µg/mL (≈ 1.67 µM)
Streptococcus pneumoniae [13]
  MIC: ≤ 0.004 µg/mL
Streptococcus pneumoniae [14]
  MIC: ≤ 0.004 µg/mL
Streptococcus pneumoniae [15]
  MIC: 0.004 µg/mL (≈ 0.0134 µM)
Streptococcus pneumoniae [16]
  MIC: 0.03 µg/mL (≈ 0.1 µM)
Streptococcus pneumoniae [17]
  MIC: 0.5 µg/mL (≈ 1.67 µM)
Streptococcus pneumoniae [18]
  MIC: 0.008 µg/mL (≈ 0.0267 µM)
Streptococcus pneumoniae [19]
  MIC: 0.03 µg/mL (≈ 0.1 µM)
Streptococcus pneumoniae [20]
  MIC: 0.03 µg/mL (≈ 0.1 µM)

## CCCC[C@H](CN(O)C=O)C(=O)N1CCC[C@H]1C(=O)Nc1ccc(F)c[n+]1[O-]
Streptococcus pneumoniae [3]
  MIC: 0.25 µg/mL (≈ 0.631 µM)
Streptococcus pneumoniae [21]
  MIC: 0.25 µg/mL (≈ 0.631 µM)
Streptococcus pneumoniae [1]
  Post Antibiotic Effe: 1 h
Streptococcus pneumoniae [22]
  MIC: 0.125 µg/mL (≈ 0.315 µM)
Streptococcus pneumoniae [4]
  MIC: 0.5 µg/mL (≈ 1.26 µM)
Streptococcus pneumoniae [5]
  MIC: 2 µg/mL (≈ 5.05 µM)
Streptococcus pneumoniae [23]
  MIC: 1 µg/mL (≈ 2.52 µM)
Streptococcus pneumoniae [24]
  MIC: 16 µg/mL (≈ 40.4 µM)
Streptococcus pneumoniae [6]
  MIC: 0.25 µg/mL (≈ 0.631 µM)
Streptococcus pneumoniae [25]
  MIC: 2 µg/mL (≈ 5.05 µM)
Streptococcus pneumoniae [26]
  MIC: 1 µg/mL (≈ 2.52 µM)
Streptococcus pneumoniae [7]
  MIC: 0.125 µg/mL (≈ 0.315 µM)
Streptococcus pneumoniae [27]
  MIC: 4 µg/mL (≈ 10.1 µM)
Streptococcus pneumoniae [28]
  MIC: 4 µg/mL (≈ 10.1 µM)
Streptococcus pneumoniae [29]
  MIC: 1 µg/mL (≈ 2.52 µM)
Streptococcus pneumoniae [30]
  MIC: 0.25 µg/mL (≈ 0.631 µM)
Streptococcus pneumoniae [8]
  MIC: 0.5 µg/mL (≈ 1.26 µM)
Streptococcus pneumoniae [31]
  MIC: 0.5 µg/mL (≈ 1.26 µM)
Streptococcus pneumoniae [9]
  MIC: 0.125 µg/mL (≈ 0.315 µM)
Streptococcus pneumoniae [32]
  MIC: 0.25 µg/mL (≈ 0.631 µM)
Streptococcus pneumoniae [33]
  MIC: 4 µg/mL (≈ 10.1 µM)
Streptococcus pneumoniae [34]
  MIC: 4 µg/mL (≈ 10.1 µM)
Streptococcus pneumoniae [35]
  MIC: 0.25 µg/mL (≈ 0.631 µM)
Streptococcus pneumoniae [10]
  MIC: 0.5 µg/mL (≈ 1.26 µM)
Streptococcus pneumoniae [36]
  MIC: 2 µg/mL (≈ 5.05 µM)
Streptococcus pneumoniae [37]
  MIC: 2 µg/mL (≈ 5.05 µM)
Streptococcus pneumoniae [38]
  MIC: 0.5 µg/mL (≈ 1.26 µM)
Streptococcus pneumoniae [11]
  MIC: 0.125 µg/mL (≈ 0.315 µM)
Streptococcus pneumoniae [12]
  MIC: 0.5 µg/mL (≈ 1.26 µM)
Streptococcus pneumoniae [39]
  MIC: 2 µg/mL (≈ 5.05 µM)
Streptococcus pneumoniae [40]
  MIC: 4 µg/mL (≈ 10.1 µM)
Streptococcus pneumoniae [41]
  MIC: > 16 µg/mL
Streptococcus pneumoniae [42]
  MIC: 0.25 µg/mL (≈ 0.631 µM)
Streptococcus pneumoniae [43]
  MIC: 2 µg/mL (≈ 5.05 µM)
Streptococcus pneumoniae [44]
  MIC: 8 µg/mL (≈ 20.2 µM)
Streptococcus pneumoniae [2]
  MIC: 2 µg/mL (≈ 5.05 µM)
Streptococcus pneumoniae [13]
  MIC: 1 µg/mL (≈ 2.52 µM)
Streptococcus pneumoniae [45]
  MIC: 2 µg/mL (≈ 5.05 µM)
Streptococcus pneumoniae [46]
  MIC: 0.5 µg/mL (≈ 1.26 µM)
Streptococcus pneumoniae [14]
  MIC: 0.5 µg/mL (≈ 1.26 µM)
Streptococcus pneumoniae [47]
  MIC: > 16 µg/mL
Streptococcus pneumoniae [15]
  MIC: 0.03 µg/mL (≈ 0.0757 µM)
Streptococcus pneumoniae [48]
  MIC: 4 µg/mL (≈ 10.1 µM)
Streptococcus pneumoniae [49]
  MIC: 1 µg/mL (≈ 2.52 µM)
Streptococcus pneumoniae [16]
  MIC: 0.5 µg/mL (≈ 1.26 µM)
Streptococcus pneumoniae [17]
  MIC: 1 µg/mL (≈ 2.52 µM)
Streptococcus pneumoniae [50]
  MIC: 1 µg/mL (≈ 2.52 µM)
Streptococcus pneumoniae [51]
  MIC: 8 µg/mL (≈ 20.2 µM)
Streptococcus pneumoniae [18]
  MIC: 0.5 µg/mL (≈ 1.26 µM)
Streptococcus pneumoniae [52]
  MIC: 0.5 µg/mL (≈ 1.26 µM)
Streptococcus pneumoniae [53]
  MIC: 2 µg/mL (≈ 5.05 µM)
Streptococcus pneumoniae [19]
  MIC: 0.25 µg/mL (≈ 0.631 µM)
Streptococcus pneumoniae [20]
  MIC: 0.125 µg/mL (≈ 0.315 µM)
